The source of these data is ChEMBL document CHEMBL1157539, “Thousands of chemical starting points for antimalarial lead identification” (Nature, 2010).

For the assay, the system named is Plasmodium falciparum. The assay is described as follows: GSK_TCMDC: Inhibition of Plasmodium falciparum 3D7 in whole erythrocytes, using parasite LDH activity as an index of growth. Particulars: Plasmodium falciparum, 3D7. It counts as functional, organism-based.
The compound `O=C(/C=C/c1cccc(Cl)c1)Nc1ccc2nc(CN3CCCC3)ccc2c1` gave an XC50 of 255 nM.

Compound `CNCCNCc1ccc(-c2ccc(-c3nc4cc(C(F)(F)F)ccc4[nH]3)s2)cc1` yielded an XC50 of 604 nM. As for `Cc1ccc2[nH]c(Nc3ccc(Nc4nc5cc(C)ccc5[nH]4)c(C)c3)nc2c1`, the figure is 769 nM; as for `O=C1c2ccc([N+](=O)[O-])cc2C(=O)N1c1ccc2[nH]ncc2c1`, 1150 nM; as for `CCNc1cc(C(=O)N[C@@H](Cc2ccccc2)[C@H](O)CNCc2cc(C#N)ccc2OC)cc(N2CCCC2=O)c1`, 1230 nM. In the case of `COc1cccc(-c2cc(-c3ccc(NC(=O)c4ccccc4)cc3)c3c(N)ncnc3n2)c1` it was 587 nM; in that of `Cc1nc(C)c(-c2ccc(S(=O)(=O)c3ccc(Cl)cc3)cc2)c(O)c1Br`, 38 nM. Compound `CC(C)c1ccc(N(CC(=O)N/N=C/c2ccc(C(F)(F)F)cc2)S(=O)(=O)c2ccc(C(F)(F)F)cc2)cc1` gave an XC50 of 846 nM. For `Cc1cc(N[C@@H](CC(C)C)C(=O)NCc2cccc(F)c2)nc(NCC2CCCCC2)n1`, the XC50 turned out to be 834 nM. Take `CCOc1ccc(N2C(N)=NC(N)=NC2(C)C)cc1`: the XC50 came to 259 nM.

Turning to `Cc1cnc(Nc2ccccc2)nc1NCCC(=O)Nc1ccccc1`, the XC50 was 1160 nM.

With `Cc1nc(-c2cccc(NCc3ccccc3)c2)[nH]c1C`, the XC50 is 863 nM.

The compound `O=C(Cn1c(SCc2cccc(F)c2F)cc(=O)c2ccccc21)N(CCCn1ccnc1)Cc1ccc(-c2ccc(C(F)(F)F)cc2)cc1` displayed an XC50 of 1320 nM.

`COc1c(C2CCN(CCN3CCC(NC(=O)c4ccc(-c5ccc(C(F)(F)F)cc5)cc4)CC3)CC2)ccc2c1CCCC2` displayed an XC50 of 1360 nM. `O=C(Nc1cccc(CN2CCCN(Cc3cccc(O)c3)CC2)c1)c1ccc(Cl)c(Cl)c1` displayed an XC50 of 664 nM. In the case of `c1ccc(-c2ccc(-c3nc4ccccc4[nH]3)cc2)cc1` it was 809 nM; in that of `CCn1ccc2c(N3CCCC3=O)cc(C(=O)N[C@@H](Cc3ccccc3)[C@H](O)CNCc3cccc(OC)c3)cc21`, 588 nM; in that of `Cc1cccc(C(=O)NCCCN2CCC(NC(=O)/C=C/c3ccc(Cl)c(Cl)c3)CC2)c1`, 1700 nM. Compound `CCNC1=NC2=C(CC(C(C)(C)C)CC2)C2(CCC(C(C)(C)C)CC2)S1` (stereo unspecified) showed an XC50 of 834 nM. As for `O=C(CSc1nccn1C1CCCCC1)Nc1cc(C(F)(F)F)ccc1Cl`, the figure is 402 nM; as for `Cc1cc(CNCCCCCCCNCc2ccc(-c3ccccc3)cc2)ccc1O`, 493 nM. In the case of `CCCCC1(c2ccc(F)cc2)NC(=O)N(CC(=O)c2cc(C)n(Cc3ccco3)c2C)C1=O` (stereo unspecified) it was 983 nM; in that of `CC(=O)c1ccc(N2CCN(CCC3(c4ccc(Cl)c(Cl)c4)COCN(C(=O)c4ccccc4)C3)CC2)cc1` (stereo unspecified), 925 nM; in that of `O=C(Nc1ccc2c(c1)CCN2C1CCN(Cc2cccc(F)c2F)C1)c1ccco1` (stereo unspecified), 787 nM. As for `Clc1ccc2c(NN=Cc3ccco3)ccnc2c1`, the figure is 1100 nM; as for `COc1ccc(CN(C)CCCOc2ccc(NC(=O)c3cccc4c(=O)c5cccc(F)c5[nH]c34)cc2)cc1OC`, 637 nM. Turning to `CC(C)c1ccc(NC(=O)c2ccc(CN3CCCN(Cc4cccc(Cl)c4)CC3)cc2)cc1`, the XC50 stood at 1160 nM.

`CC[C@H](C)CNC(=O)c1cncc(-c2ccc(CNC3CCCC3)cc2)c1` had an XC50 of 1120 nM. In the case of `CC[C@@]1(O)C(=O)OCc2c1cc1n(c2=O)Cc2c-1nc1cc3c(cc1c2CN1CCN(C)CC1)OCCO3` it was 446 nM; in that of `CN(C)CCN1CCN(Cc2ccc(-c3cccc(-c4nc5ccccc5[nH]4)c3)cc2)CC1`, 199 nM.

Regarding `Cc1ccc(C(=O)Nc2cc(C(F)(F)F)cc(C(F)(F)F)c2)cc1[N+](=O)[O-]`, the XC50 is 927 nM. In the case of `O=[N+]([O-])c1cccc(S(=O)(=O)N2CCN(CC(O)COc3ccc(-c4ccccc4)cc3)CC2)c1` (stereo unspecified) it was 1360 nM. In turn, `Cc1ncc([N+](=O)[O-])n1CCOC(=O)NC(Nc1ccc(Br)cc1)C(Cl)(Cl)Cl` (stereo unspecified) returned an XC50 of 962 nM.

In the case of `CCn1c(-c2nonc2N)nc2c(-c3cccc(Cl)c3)ncc(OCCCNCc3cnc(C)nc3N)c21`, the XC50 was determined as 1010 nM.

In the case of `Cc1cc(N)c2cc(NC(=O)c3cc(C(F)(F)F)cc(C(F)(F)F)c3)ccc2n1`, the XC50 was 86.8 nM. `O=S(=O)(Nc1ccc(-c2ccc(CN3CCCC3)cc2)cc1)c1cccc2cccnc12` registered an XC50 of 1020 nM. In turn, `CCCC(C)Nc1nc(C)cc(N[C@@H](CC(C)C)C(=O)NCCOc2ccccc2)n1` (stereo partly specified) had an XC50 of 1710 nM. As to `O=S(=O)(NCCN1CCCC1)c1ccc(-c2cccc(CNC3Cc4ccccc4C3)c2)cc1F`, the XC50 is 1020 nM. As to `CC(C)CC(C)NC(=O)C1Cc2c([nH]c3ccc(F)cc23)C2(CCN(Cc3ccccc3)CC2)N1` (stereo unspecified), the XC50 is 970 nM. In the case of `Cc1ccc(-c2ccn(Cc3ccc(OCc4ccccc4)cc3)n2)cn1.Cc1ccc(-c2ccnn2Cc2ccc(OCc3ccccc3)cc2)cn1` it was 674 nM; in that of `NCCc1cccc(-c2cnc3[nH]cc(-c4ccc(C(=O)O)cc4)c3c2)c1`, 397 nM; in that of `O=C(COC(=O)c1cccc(S(=O)(=O)N2CCc3ccccc32)c1)NNC(=O)c1cccs1`, 1250 nM. As for `Cc1cc(N2CCC(C)CC2)nc2cc(O)ccc12`, the figure is 1180 nM; as for `CCCc1ccc(S(=O)(=O)NC2CCN(C(=O)Nc3ccc(I)cc3)CC2)cc1`, 872 nM; as for `O=C(NCc1cccc(F)c1)Nc1cccc(-c2cccc(-c3nc4cc(C(F)(F)F)ccc4[nH]3)c2)c1`, 330 nM.

Turning to `COc1ccc(NC(=O)CSc2nc(-c3ccccc3Cl)ns2)cc1`, the XC50 was 1040 nM. `NCc1cccc(-c2ccc3ccnc(N)c3c2)c1`: the XC50 was 168 nM. Compound `O=C(Nc1cccc(F)c1)N(Cc1ccc(-c2cccc(CN3CCNCC3)c2)cc1)C1CCN(Cc2ccccc2)CC1` had an XC50 of 763 nM. `COc1ccc(S(=O)(=O)NCC2CCCN(CCCCCNC(=O)/C=C/c3ccc(Cl)c(Cl)c3)C2)cc1` (stereo unspecified) displayed an XC50 of 1060 nM. `O=C(c1ccc(Cl)cc1Cl)N1CCCC(C(F)(F)F)C1` (stereo unspecified): the XC50 came to 952 nM. As for `COc1cc(Cc2cnc(N)nc2N)c2ccsc2c1OC`, the XC50 was 1070 nM. As for `COc1ccc(-c2cnc(N)c(-c3ccc(O)c(OC)c3)c2)cn1`, the figure is 875 nM; as for `CCCC(C)NC(=O)[C@H]1CNCCN1C(=O)CCCc1ccccc1` (stereo partly specified), 186 nM; as for `CCN(CCCN1CCCC1)c1cc(C)nc(Nc2ccc(Cl)cc2)n1`, 344 nM.

In turn, `CCCc1c(C(=O)NC2CCC(CN3CCC(c4c[nH]c5ccccc45)CC3)CC2)cnn1-c1c(Cl)cc(Cl)cc1Cl` (stereo unspecified) came in with an XC50 of 820 nM. As for `COc1ccc(-c2cnc3ccc(NCc4ccc(F)cc4)nn23)cc1OC`, the figure is 834 nM; as for `Cc1cc2ccc(-c3cccc(CN)c3)cc2nc1N`, 758 nM. In the case of `CCCN(CCC)CCCN(CCCN(CCC)CCC)c1cc(C)nc(Nc2ccc3cc(Br)ccc3c2)n1` it was 210 nM; in that of `CCc1c(C)c(C#N)c2nc3ccccc3n2c1NCc1ccco1`, 698 nM; in that of `CC(C)CNCc1cccc(-c2cccc(CN(C(=O)c3cccs3)C3CCN(Cc4ccccc4)CC3)c2)c1`, 896 nM. With `CO/C(=C\C=C\c1cc2cc(Cl)c(Cl)cc2[nH]1)C(=O)NCCCN1CCN(Cc2ccccc2)CC1`, the XC50 was 912 nM. As for `O=C1C2C(c3ccc(Cl)c(Cl)c3)N3CC(OCc4ccccc4)CC3(C(=O)O)C2C(=O)N1c1ccc(Br)cc1` (stereo unspecified), the figure is 336 nM; as for `COc1cccc(C23NC(=Nc4nc5ccccc5[nH]4)NC2(c2cccc(OC)c2)NC(=Nc2nc4ccccc4[nH]2)N3)c1` (stereo unspecified), 157 nM. As for `Cc1ccc(-c2nc3cc(C(=O)NC4CCN(Cc5ccccc5)CC4)ccc3[nH]2)cc1`, the figure is 744 nM. `CCCn1c(Sc2ccc(C#N)c([N+](=O)[O-])c2)nnc1-c1ccc(Cl)cc1` had an XC50 of 537 nM. Consider `CCOc1ccc2[nH]c(C)cc(=NN=Cc3cccnc3)c2c1`, for which the XC50 is 155 nM. As for `COc1cc2nc(N3CCC(CNC(=O)/C=C/c4cccc(C)c4)CC3)nc(N)c2cc1OC`, the figure is 684 nM; as for `Nc1ncnc2c1ncn2C(CO)Cc1ccc(O)cc1` (stereo unspecified), 1030 nM; as for `Cc1ccc(Cn2c(N3CCC(C(=O)NCc4ccccn4)CC3)nc3ccccc32)cc1`, 408 nM.

`CCOc1cc(C(=O)NC2CCN(Cc3ccccc3)CC2)ccc1-c1nc2cc(Cl)ccc2[nH]1` yielded an XC50 of 430 nM. With `COc1ccc2[nH]ccc(=NN=Cc3ccccc3)c2c1`, the XC50 was 110 nM. As for `CC1CCC(C[C@@H](C(=O)N[C@@H](CCC(=O)N2CCCCC2)C(=O)Nc2nccs2)[C@H](C(C)C)N(O)C=O)CC1` (stereo partly specified), the figure is 615 nM; as for `Cn1cc(C2CCN(CCCCNC(=O)c3ccc(C(=O)Nc4ccc(C#N)cc4)cc3)CC2)c2ccccc21`, 724 nM.

`O=C(/C=C/c1c[nH]c2ccccc12)NCCCCCN1CCC(c2c[nH]c3ccccc23)CC1` had an XC50 of 932 nM. Take `CCOCCCNc1ncc(-c2ccsc2)c(-c2nc(C)cs2)n1`: the XC50 was determined as 272 nM. In the case of `C[C@@H](Oc1cc(-n2cnc3cc(SCCN4CCN(C)CC4)ccc32)sc1C(N)=O)c1ccccc1Cl` it was 507 nM.

As for `O=C(N[C@@H](Cc1cc(F)cc(F)c1)[C@H](O)CNCc1cccc(C(F)(F)F)c1)c1cc(C2CCCC2)cc(N2CCCC2=O)c1`, the XC50 was 803 nM.

`O=S(=O)(NCCN1CCCC1)c1ccc(-c2cccc(CNCc3ccc(F)cc3)c2)cc1`: the XC50 came to 729 nM. Compound `Cc1cc(NC(=O)NCCN2CCC(NS(=O)(=O)c3ccccc3Cl)C2)c2ccccc2n1` (stereo unspecified) returned an XC50 of 815 nM. On to `CCC1(C)CC(CCNCc2ccccc2O)(c2ccccc2OC)CCO1` (stereo unspecified), for which the XC50 came to 721 nM. As for `c1ccc(-c2ccc(-c3csc(Nc4ccncc4)n3)cc2)cc1`, the figure is 1010 nM; as for `O=C(Nc1ccc(N2CCCCC2)c(Cl)c1)c1ccc(Br)o1`, 549 nM; as for `Cc1cc2c(cc1C(F)(F)F)N(C(=O)Nc1cc(OCCN(C(C)C)C(C)C)cc(C(F)(F)F)c1)CC2`, 259 nM. Turning to `CCCNC(=O)c1cncc(-c2cccc(CNC3Cc4ccccc4C3)c2)c1`, the XC50 was found to be 803 nM. For `CCc1c(C)nc(-n2nc(C)cc2NC(=O)C(CC)c2ccccc2)[nH]c1=O` (stereo unspecified), the XC50 is 714 nM. As for `c1cc(CNCCc2ccncc2)cc(-c2ccc(-c3nc4ccccc4[nH]3)cc2)c1`, the figure is 146 nM.
